Legend:
Format in all cases: in vivo
[1] = tested on: Echinochloa crus-galli var. crus-galli; assay: Test Example 3: herbicidal effect by foliage application, Wagner pot (symbol H); conditions: application herbicide amount 320 g/ha; for H (Echinochloa crus-galli var. crus-galli) herbicidal effect grade: Table 24
Outline: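 Plants sown in submerged alluvial soil (water depth 0.1–0.5 cm) in a 25–30 °C greenhouse and grown 14 days. An emulsion of the compound diluted in water to a set herbicide amount was sprayed uniformly on foliage. Effect on each plant scored 3 weeks after application.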

Veronica persica [2] = assay: Test Example 4: herbicidal effect by soil treatment (symbol R); conditions: application herbicide amount 320 g/ha
Outline: (§1)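 Seeds were sown in sterilized diluvial soil, covered with about 1.5 cm of soil, and the soil surface was sprayed with a water-diluted emulsion of the compound at a predetermined rate. Plants grew in a greenhouse at 25° C. to 30° C.; effects were scored visually 3 weeks after application.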

soybean = assay: Test Example 5: effect on crop by foliage application, plastic box (symbol d); conditions: 320 g/ha, 3 weeks after application
Outline: (§2)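 Crop and weed seeds sown in spots in sterilized diluvial soil in plastic boxes and covered with about 1.5 cm soil. Plants raised in a greenhouse at 25° C. to 30° C. for foliar application.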

Digitaria ciliaris [3] = assay: Test Example 4: herbicidal effect by soil treatment (symbol F); conditions: application herbicide amount 320 g/ha
Outline: as §1

Digitaria ciliaris [4] = assay: Test Example 5: herbicidal effect by foliage application, plastic box (symbol F); conditions: 320 g/ha, 3 weeks after application
Outline: (§3)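 Effect is rated 3 weeks after a foliar spray of water-diluted emulsion concentrate at a predetermined herbicide amount. Plants had grown 14 days in a 25° C. to 30° C. greenhouse from seed in sterilized diluvial soil.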

rice plant = assay: Test Example 5: effect on crop by foliage application, plastic box (symbol b); conditions: 320 g/ha, 3 weeks after application
Outline: as §2

Abutilon theophrasti [5] = assay: Test Example 4: herbicidal effect by soil treatment (symbol M); conditions: application herbicide amount 320 g/ha
Outline: as §1

Avena fatua = assay: Test Example 4: herbicidal effect by soil treatment (symbol I); conditions: application herbicide amount 320 g/ha
Outline: as §1

[6] = tested on: Echinochloa oryzacola Vasing.; assay: Test Example 2: herbicidal activity, application during weed generation in submerged conditions (symbol A); conditions: Table 23; application herbicide amount 320 g/ha; grade 0-5 by criteria of Test Example 1
Outline: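 Seeds sown in flooded alluvial soil (4 cm water) were grown in a 25-30° C greenhouse. At the one- to two-leaf stage, diluted emulsion of compound was applied to the water surface at a predetermined rate. Effect was scored 3 weeks later.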

beet [7] = assay: Test Example 4: effect on crop by soil treatment (symbol f); conditions: application herbicide amount 320 g/ha
Outline: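 Greenhouse culture at 25° C. to 30° C. followed sowing of seed in spots on sterilized diluvial soil with a soil cover close to 1.5 cm thick.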

Amaranthus retroflexus = assay: Test Example 5: herbicidal effect by foliage application, plastic box (symbol N); conditions: 320 g/ha, 3 weeks after application
Outline: as §3

Alopecurus myosuroides = assay: Test Example 4: herbicidal effect by soil treatment (symbol J); conditions: application herbicide amount 320 g/ha
Outline: as §1

beet [8] = assay: Test Example 5: effect on crop by foliage application, plastic box (symbol f); conditions: 320 g/ha, 3 weeks after application
Outline: as §2

Abutilon theophrasti [9] = assay: Test Example 5: herbicidal effect by foliage application, plastic box (symbol M); conditions: 320 g/ha, 3 weeks after application
Outline: as §3

Apera spica-venti = assay: Test Example 5: herbicidal effect by foliage application, plastic box (symbol L); conditions: 320 g/ha, 3 weeks after application
Outline: as §3

Veronica persica [10] = assay: Test Example 5: herbicidal effect by foliage application, plastic box (symbol R); conditions: 320 g/ha, 3 weeks after application
Outline: as §3

SMILES | H (Echinochloa crus-galli var. crus-galli) herbicidal effect grade [1] | Herbicidal effect grade, R: Veronica persica (Veronica persica [2]) | d: soybean, effect on crop grade (soybean) | Herbicidal effect grade, F: Digitaria ciliaris (Digitaria ciliaris [3]) | F: Digitaria ciliaris, herbicidal effect grade (Digitaria ciliaris [4]) | b: directly sowed rice plant, effect on crop grade (rice plant) | Herbicidal effect grade, M: Abutilon theophrasti (Abutilon theophrasti [5]) | Herbicidal effect grade, I: Avena fatua (Avena fatua) | Herbicidal effect grade, A: Echinochloa oryzacola Vasing. [6] | Effect on crop grade, f: beet (beet [7]) | N: Amaranthus retroflexus, herbicidal effect grade (Amaranthus retroflexus) | Herbicidal effect grade, J: Alopecurus myosuroides (Alopecurus myosuroides) | f: beet, effect on crop grade (beet [8]) | M: Abutilon theophrasti, herbicidal effect grade (Abutilon theophrasti [9]) | L: Apera spica-venti, herbicidal effect grade (Apera spica-venti) | R: Veronica persica, herbicidal effect grade (Veronica persica [10]) | herbicidal effect on H (Echinochloa crus-galli var. crus-galli), grade 0-5 [1] | d: soybean, effect on crop (criteria of Test Example 1) (soybean) | F: Digitaria ciliaris, herbicidal effect (criteria of Test Example 1) (Digitaria ciliaris [4]) | b: directly sowed rice plant, effect on crop (criteria of Test Example 1) (rice plant) | further results
CC(CC1CC(O)=C(c2c(C)cc(Br)cc2C)C1=O)=NOCC(=O)N(C)C (mixture of isomers) [9-029] | 4 (Herbicidal ratio of 70% or higher and lower than 90%) | 0 (Herbicidal ratio of 5% or lower (almost no effect)) | 0 (Herbicidal ratio of 5% or lower (almost no effect)) | 3 (Herbicidal ratio of 40% or higher and lower than 70%) | 3 (Herbicidal ratio of 40% or higher and lower than 70%) | 3 (Herbicidal ratio of 40% or higher and lower than 70%) | 0 (Herbicidal ratio of 5% or lower (almost no effect)) | 0 (Herbicidal ratio of 5% or lower (almost no effect)) | 0 (Herbicidal ratio of 5% or lower (almost no effect)) | 0 (Herbicidal ratio of 5% or lower (almost no effect)) | 0 (Herbicidal ratio of 5% or lower (almost no effect)) | 3 (Herbicidal ratio of 40% or higher and lower than 70%) | 0 (Herbicidal ratio of 5% or lower (almost no effect)) | 0 (Herbicidal ratio of 5% or lower (almost no effect)) | 4 (Herbicidal ratio of 70% or higher and lower than 90%) | 0 (Herbicidal ratio of 5% or lower (almost no effect)) |  |  |  |  | 
CON=C(C)CC1CC(OC)=C(c2c(C)cc(C)cc2C)C1=O (stereo not shown) [1-001, 2-mesityl-3-methoxy-5-{2-(methoxyimino)propyl}cyclopent-2-enone] |  |  | 0 (Herbicidal ratio of 5% or lower (almost no effect)) |  | 0 (Herbicidal ratio of 5% or lower (almost no effect)) | 0 (Herbicidal ratio of 5% or lower (almost no effect)) |  |  | 0 (Herbicidal ratio of 5% or lower (almost no effect)) |  | 0 (Herbicidal ratio of 5% or lower (almost no effect)) |  | 0 (Herbicidal ratio of 5% or lower (almost no effect)) | 0 (Herbicidal ratio of 5% or lower (almost no effect)) | 0 (Herbicidal ratio of 5% or lower (almost no effect)) | 0 (Herbicidal ratio of 5% or lower (almost no effect)) | 0 (Herbicidal ratio of 5% or lower (almost no effect)) |  |  |  | R (Veronica persica) herbicidal effect grade (Veronica persica [2]): 0 (Herbicidal ratio of 5% or lower (almost no effect)); F (Digitaria ciliaris) herbicidal effect grade (Digitaria ciliaris [3]): 0 (Herbicidal ratio of 5% or lower (almost no effect)); M (Abutilon theophrasti) herbicidal effect grade (Abutilon theophrasti [5]): 0 (Herbicidal ratio of 5% or lower (almost no effect)); I (Avena fatua) herbicidal effect grade (Avena fatua): 0 (Herbicidal ratio of 5% or lower (almost no effect)); f (beet) effect on crop grade (beet [7]): 0 (Herbicidal ratio of 5% or lower (almost no effect)); J (Alopecurus myosuroides) herbicidal effect grade (Alopecurus myosuroides): 0 (Herbicidal ratio of 5% or lower (almost no effect))
CC(=O)CC1CC(O)=C(c2c(C)cc(-c3ccc(OC(F)(F)F)cc3)cc2C)C1=O (stereo not shown) [7-016] |  | 0 (Herbicidal ratio of 5% or lower (almost no effect)) |  | 3 (Herbicidal ratio of 40% or higher and lower than 70%) |  |  | 0 (Herbicidal ratio of 5% or lower (almost no effect)) | 0 (Herbicidal ratio of 5% or lower (almost no effect)) |  | 0 (Herbicidal ratio of 5% or lower (almost no effect)) |  | 0 (Herbicidal ratio of 5% or lower (almost no effect)) |  |  |  |  | 0 (Herbicidal ratio of 5% or lower (almost no effect)) | 0 (Herbicidal ratio of 5% or lower (almost no effect)) | 0 (Herbicidal ratio of 5% or lower (almost no effect)) | 0 (Herbicidal ratio of 5% or lower (almost no effect)) | N: Amaranthus retroflexus, herbicidal effect (criteria of Test Example 1) (Amaranthus retroflexus): 0 (Herbicidal ratio of 5% or lower (almost no effect)); f: beet, effect on crop (criteria of Test Example 1) (beet [8]): 0 (Herbicidal ratio of 5% or lower (almost no effect)); M: Abutilon theophrasti, herbicidal effect (criteria of Test Example 1) (Abutilon theophrasti [9]): 0 (Herbicidal ratio of 5% or lower (almost no effect)); L: Apera spica-venti, herbicidal effect (criteria of Test Example 1) (Apera spica-venti): 0 (Herbicidal ratio of 5% or lower (almost no effect)); R: Veronica persica, herbicidal effect (criteria of Test Example 1) (Veronica persica [10]): 0 (Herbicidal ratio of 5% or lower (almost no effect))
CC(=O)CC1CC(O)=C(c2c(C)cc(-c3ncccn3)cc2C)C1=O (stereo not shown) [7-017] |  | 0 (Herbicidal ratio of 5% or lower (almost no effect)) |  | 4 (Herbicidal ratio of 70% or higher and lower than 90%) |  |  | 0 (Herbicidal ratio of 5% or lower (almost no effect)) | 0 (Herbicidal ratio of 5% or lower (almost no effect)) |  | 0 (Herbicidal ratio of 5% or lower (almost no effect)) |  | 0 (Herbicidal ratio of 5% or lower (almost no effect)) |  |  |  |  | 5 (Herbicidal ratio of 90% or more (almost completely withered)) | 0 (Herbicidal ratio of 5% or lower (almost no effect)) | 5 (Herbicidal ratio of 90% or more (almost completely withered)) | 5 (Herbicidal ratio of 90% or more (almost completely withered)) | N: Amaranthus retroflexus, herbicidal effect (criteria of Test Example 1) (Amaranthus retroflexus): 0 (Herbicidal ratio of 5% or lower (almost no effect)); f: beet, effect on crop (criteria of Test Example 1) (beet [8]): 0 (Herbicidal ratio of 5% or lower (almost no effect)); M: Abutilon theophrasti, herbicidal effect (criteria of Test Example 1) (Abutilon theophrasti [9]): 0 (Herbicidal ratio of 5% or lower (almost no effect)); L: Apera spica-venti, herbicidal effect (criteria of Test Example 1) (Apera spica-venti): 3 (Herbicidal ratio of 40% or higher and lower than 70%); R: Veronica persica, herbicidal effect (criteria of Test Example 1) (Veronica persica [10]): 0 (Herbicidal ratio of 5% or lower (almost no effect))
CON=C(CC1CC(O)=C(c2c(C)cc(-n3cc(Cl)cn3)cc2C)C1=O)C(C)C (stereo not shown) [9-004] | 5 (Herbicidal ratio of 90% or more (almost completely withered)) | 0 (Herbicidal ratio of 5% or lower (almost no effect)) | 0 (Herbicidal ratio of 5% or lower (almost no effect)) | 5 (Herbicidal ratio of 90% or more (almost completely withered)) | 5 (Herbicidal ratio of 90% or more (almost completely withered)) |  | 0 (Herbicidal ratio of 5% or lower (almost no effect)) | 2 (Herbicidal ratio of 20% or higher and lower than 40%) | 5 (Herbicidal ratio of 90% or more (almost completely withered)) | 0 (Herbicidal ratio of 5% or lower (almost no effect)) |  | 5 (Herbicidal ratio of 90% or more (almost completely withered)) | 0 (Herbicidal ratio of 5% or lower (almost no effect)) | 0 (Herbicidal ratio of 5% or lower (almost no effect)) | 4 (Herbicidal ratio of 70% or higher and lower than 90%) | 0 (Herbicidal ratio of 5% or lower (almost no effect)) |  |  |  |  | 
